In article PMC5554537 (Frontiers in Pharmacology, 2017):
Read-outs that look alike come from different tables or passages of the source.

Experiments:
[1] = parameters: method as in Anderson et al., 2014; details: ref Anderson et al., 2014; cited from earlier work
[2] = Reductive metabolism in liver S9 preparations; format: in vitro ADME, NIH-III mice; details: for Rate of reduction to M14: 20 μg/ml protein
Procedure: In vitro hepatic metabolism of SN30000 and M14 was studied using 9,000 g post-mitochondrial supernatants (S9) prepared from livers of female NIH-III mice. Metabolism at 37°C was measured by dilution of S9 to appropriate protein concentrations (measured by BCA protein assay) in sodium/potassium phosphate buffer (67 mM phosphate, pH 7.4) containing 5 mM MgCl2, 1 mM EDTA, 1 mM NADPH, 1 mM NADH and 150 μM test drug. The reaction was terminated by adding an equal volume of ice-cold MeOH and samples were analyzed by LC-MS/MS. Two methods were used to modify the oxygen concentration. Method 1: 96-well plates (reaction volume 0.1 mL/well) were incubated for 30 min on a Eppendorf Thermomixer C (Eppendorf AG, Hamburg, Germany) either under 21% O2 (oxia) or 95% N2/5% CO2 (anoxia) in an anaerobic chamber (Sheldon Manufacturing, Cornelius, OR, United States) as described previously ([Gu et al., 2010]). Method 2: glass vials containing 3 mL final volume were magnetically stirred continuously in a water bath under flowing 5% CO2 containing 0, 0.2, 2, or 20% O2 (certified gas mixtures from BOC Gasses NZ), as detailed previously ([Hicks et al., 2007]), and samples (0.1 mL) were withdrawn at intervals for analysis.
To address whether this reflects an oxygen-sensitive (one-electron reduction) or oxygen-insensitive (two-electron reduction) process, metabolism was compared in NIH-III mouse liver S9 preparations under 20% O2 or anoxia. […] Using low protein concentrations (20 μg/ml) to enable assessment of initial rates, reduction to M14 was similar for anoxic liver S9 preparations from male and female NIH-III mice (10.6 ± 0.2 and 9.2 ± 0.2 nmol/min/mg protein, respectively). […] The liver S9 intrinsic clearance, CLint, was calculated as Vmax/Km for M14 formation under anoxia and scaled to the whole liver based on the (unrealistic) assumption that the liver is entirely anoxic. This upper estimate of in vivo hepatic clearance was then predicted as previously described ([Gu et al., 2011b]) using the free fraction of SN30000 in mouse plasma determined by equilibrium dialysis (Supplementary Table 11).

NIH-III mice = system: NIH-III mice; parameters: method as in Gu et al., 2014; details: ref Gu et al., 2014, cited from earlier work; for Survival: 14 days
[3] = plasma
Procedure: SN30000, M14 and M18 dosing solutions were prepared fresh in normal saline, filtered through 0.45 μm Acrodisc filters (Pall Life Sciences, Port Washington, NY, United States), protected from light in amber vials, and used within 3 h. Doses are expressed as mg of free base equivalent for SN30000 and M14, and free acid in the case of M18. […] For evaluation of acute toxicity, mice were observed continuously for 3 h after dosing, and their activity rated on a lethargy score from 0 representing no change in activity to 5 representing animals that were moribund and required culling. For MTD studies, the animals were checked daily for clinical signs of toxicity and body weight change for 2 weeks. In some studies rectal temperature changes after dosing were measured using a BAT-12 digital microprobe thermometer (Physitemp Instruments, Clifton, NJ, United States) at the times specified in the figures. Blood samples were collected from mice at various times by cardiac puncture, seconds after cervical dislocation, into ice-cold tubes containing K2EDTA. These were placed on ice immediately after collection and centrifuged (3,000 g, 3 min) within 10 min to harvest plasma. Plasma and tissues were rapidly frozen in liquid nitrogen before storage at -80°C for subsequent bioanalysis.
Concentration-time data were analyzed by non-compartmental analysis using Phoenix WinNonlin (ver 6.4, Build 6.4.0768 Pharsight, United States); all AUC values were extrapolated to infinity using the linear trapezoidal rule. A compartmental model for plasma PK after dosing with SN30000 or M14 was fitted using Phoenix NLME v1.3 with random effects on the metabolite volumes of distribution, and temperature effects based on the observed body temperature at the last measurement time. Temperature effects were added or removed until there was no significant change in the log likelihood. Model fits were further assessed by visual inspection of the residuals and predicted PK.

HT29 tumor cells = system: HT29 tumor cells; parameters: method as in Hicks et al., 2010; details: stirred suspensions of HT29 tumor cells; ref Hicks et al., 2010; cited from earlier work
[4] = Redox cycling: non-respiratory O2 consumption and H2O2 generation; format: cell-based; details: Chinese hamster; CHO/POR cells, 600 µM single bolus; read-out: Cell viability by trypan blue at end of exposure
Procedure: The Chinese hamster ovary cell line 51D1.3 (herein called CHO) and a stable transfectant expressing a soluble form of human P450 oxidoreductase (51D1.3/sPOR, herein called CHO/POR) ([Gu et al., 2009]), were grown in spinner flasks in αMEM plus 5% fetal bovine serum. Late log phase cultures were harvested by centrifugation, resuspended at 5 × 10^5 cells/mL in phenol red-free high-glucose DMEM (Invitrogen) supplemented with 4 mM Glutamax-1, 1 mM sodium pyruvate and 5% FBS. Stirred cell suspensions (2 mL) were transferred to an OXYBOROS O2K oxygraph for simultaneous polarographic measurement of non-respiratory O2 consumption and fluorimetric measurement of H2O2 generation as previously ([Hunter et al., 2012]). Bovine liver superoxide dismutase (10 U), horseradish peroxidase (10 U), Amplex UltraRed (50 nmol) and rotenone (1 nmol), all from Molecular Probes Invitrogen (Eugene, OR), were injected and cumulative drug additions (from saline stock solutions) were made every ∼5 min once endogenous rates had stabilized. Signals were recorded every 2 s, and flux derivatives were estimated ∼2 min after each addition using a Savitzky–Golay smoothing filter (40 data point window) in DATLAB version 4.3.
Supplementary Figure 4. Time-dependent changes in oxy gen consu mption and H2O2 formation rates induced by SN30000 in rotenone-inhibited CHO/POR cell suspensions, monitored with an OXYBOROS O2K oxygraph. Conditions of the experiment were identical to Fig. 5 except that SN30000 was added as a single bolus to separate cell suspension, rather than by cu mulative addition. A: Representative traces for oxygen consu mption and H2O2 formation rates for a single culture when SN30000 was added to a final concentration of 600 µM, at 4 min. Peak rates were established within 2 min, followed by a decline to a new steady state at approximately 1/3rd of the maximu m rate. Cell viability was > 97% by try pan […]
killing. […]

Compound: [O-][n+]1nc(CCCN2CCOCC2)nc2cc3c(cc21)CCC3 [M14]
- One-electron reduction potential, lower than SN30000 by [1]: 70 mV

Compound: [O-][n+]1nc(CCCN2CCOCC2)[n+]([O-])c2cc3c(cc21)CCC3 [SN30000, 3-(3-Morpholinopropyl)-7,8-dihydro-6H-indeno[5,6-e][1,2,4]triazine 1,4-dioxide]
- Rate of reduction to M14 ([2]; anoxic liver S9 from female mice): 9.2 ± 0.2 nmol/min/mg protein
- Rate of reduction to M14 ([2]; anoxic liver S9 from male mice): 10.6 ± 0.2 nmol/min/mg protein
- Vmax for formation of M14 ([2]; anoxic mouse liver S9): 71 ± 2 nmol/min/mg protein
- Predicted hepatic clearance ([2]; dispersion model): 78.2 mL/min/kg
- Km ([2]; female, NIH-III, liver S9 (9,000 g post-mitochondrial supernatant), pH 7.4, anoxic mouse liver S9, read-out: Apparent Km for formation of M14): 974 ± 71 µM
- Predicted hepatic clearance ([2]; parallel tube model): 83.5 mL/min/kg
- Predicted hepatic clearance ([2]; well-stirred model, from anoxic S9 CLint, liver assumed entirely anoxic): 65.2 mL/min/kg
- Survival (NIH-III mice; female, 562 µmol/kg i.p.): 6/6
- Body weight nadir, Day (NIH-III mice; female, 562 µmol/kg i.p.): 1
- Body weight nadir, Weight loss (NIH-III mice; female, 562 µmol/kg i.p.): 8.4 ± 1.7%
- Survival (NIH-III mice; female, 750 µmol/kg i.p.): 1/2
- Body weight nadir, Day (NIH-III mice; female, 750 µmol/kg i.p.): 2
- Body weight nadir, Weight loss (NIH-III mice; female, 750 µmol/kg i.p.): 14.4%
- Survival (NIH-III mice; female, 1000 µmol/kg i.p.): 0/1
- Survival (NIH-III mice; male, 562 µmol/kg i.p.): 7/7
- Body weight nadir, Day (NIH-III mice; male, 562 µmol/kg i.p.): 1
- Body weight nadir, Weight loss (NIH-III mice; male, 562 µmol/kg i.p.): 4.2 ± 1.2%
- Survival (NIH-III mice; male, 750 µmol/kg i.p.): 2/3
- Body weight nadir, Day (NIH-III mice; male, 750 µmol/kg i.p.): 1
- Body weight nadir, Weight loss (NIH-III mice; male, 750 µmol/kg i.p.): 12.1 ± 3.8%
- Survival (NIH-III mice; male, 1000 µmol/kg i.p.): 1/2
- Body weight nadir, Day (NIH-III mice; male, 1000 µmol/kg i.p.): 1
- Body weight nadir, Weight loss (NIH-III mice; male, 1000 µmol/kg i.p.): 13.3%
- Survival (NIH-III mice; male, 1333 µmol/kg i.p.): 1/2
- Body weight nadir, Day (NIH-III mice; male, 1333 µmol/kg i.p.): 1
- Body weight nadir, Weight loss (NIH-III mice; male, 1333 µmol/kg i.p.): 11.6%
- Apparent Cl ([3]; i.p. SN30000 1.86 mg/kg): 553 mL/min/kg
- Apparent Cl ([3]; i.p. SN30000 18.6 mg/kg): 447 mL/min/kg
- Apparent Cl ([3]; i.p. SN30000 78.3 mg/kg): 126 mL/min/kg
- Apparent Cl ([3]; i.p. SN30000 92.8 mg/kg): 95 mL/min/kg
- Apparent Cl ([3]; i.p. SN30000 186 mg/kg): 59.2 mL/min/kg
- O2 in solution for 50% inhibition of cytotoxicity (HT29 tumor cells): 1.14 ± 0.24 µM
- viability at 600 µM [4]: > 97%
